Measurements: patent publication US6737383B1, “Herbicidal oxadiazolidines” (priority 1999, dated 2004)

Experiments:
pigweed = experiment: Test B pre/postemergence pigweed; type: in vivo, Amaranthus retroflexus
Method in brief: (§1)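 Response is a visual 0-to-10 score relative to untreated plants, where 0 means no effect and 10 means complete control, taken twelve to sixteen days after application. Treatments went onto soil at planting and onto foliage of 1- to 4-leaf plants, using a surfactant-containing non-phytotoxic solvent.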

sugar beet = experiment: Test B pre/postemergence sugar beet; type: in vivo, Beta vulgaris
Method in brief: as §1

giant foxtail = experiment: Test B pre/postemergence giant foxtail; type: in vivo, Setaria faberii
Method in brief: as §1

soybean = experiment: Test B pre/postemergence soybean; type: in vivo, Glycine max
Method in brief: as §1

cocklebur = experiment: Test B pre/postemergence cocklebur; type: in vivo, Xanthium strumarium
Method in brief: as §1

crabgrass = experiment: Test B pre/postemergence crabgrass; type: in vivo, Digitaria sanguinalis
Method in brief: as §1

velvetleaf = experiment: Test B pre/postemergence velvetleaf; type: in vivo, Abutilon theophrasti
Method in brief: as §1

wheat = experiment: Test B pre/postemergence wheat; type: in vivo, Triticum aestivum
Method in brief: as §1

blackgrass = experiment: Test B pre/postemergence blackgrass; type: in vivo, Alopecurus myosuroides
Method in brief: as §1

purple nutsedge = experiment: Test B pre/postemergence purple nutsedge; type: in vivo, Cyperus rotundus
Method in brief: as §1

morningglory = experiment: Test B pre/postemergence morningglory; type: in vivo, Ipomoea hederacea
Method in brief: as §1

bedstraw = experiment: Test B pre/postemergence bedstraw; type: in vivo, Galium aparine
Method in brief: as §1

surinam grass = experiment: Test B pre/postemergence surinam grass; type: in vivo, Brachiaria decumbens
Method in brief: as §1

corn = experiment: Test B pre/postemergence corn; type: in vivo, Zea mays
Method in brief: as §1

rape = experiment: Test B pre/postemergence rape; type: in vivo, Brassica napus
Method in brief: as §1

wild oat = experiment: Test B pre/postemergence wild oat; type: in vivo, Avena fatua
Method in brief: as §1

[1] = Postemergence, Rate 62 g/ha, scale of 0 to 10, 0 is no effect, 10 is complete control
[2] = Postemergence, Rate 500 g/ha, scale of 0 to 10 where 0 is no effect and 10 is complete control
[3] = Preemergence, Rate 62 g/ha, scale 0 to 10 (0 no effect, 10 complete control)
[4] = Preemergence, Rate 125 g/ha, scale 0 to 10, 0 is no effect, 10 is complete control
[5] = Preemergence, Rate 500 g/ha, scale of 0 to 10 where 0 is no effect and 10 is complete control
[6] = Rate 250 g/ha, Postemergence, scale of 0 to 10 where 0 is no effect and 10 is complete control
[7] = Postemergence, Rate 125 g/ha, scale 0 to 10, 0 is no effect, 10 is complete control

With `CCCCCn1c(=O)on(C(=O)N(c2ccccc2)C(C)C)c1=O` [Compound 557] the “Redroot pigweed plant response rating” value (pigweed; [1]) was 0, the “Plant response rating, Redroot pigweed” value (pigweed; [2]) was 0 and the “Redroot pigweed plant response rating” value (pigweed; [3]) was 0. For the same molecule, the “Redroot pigweed plant response rating” value (pigweed; [4]) was 0, the “Redroot pigweed plant response rating (0 to 10 scale)” value (pigweed; Preemergence, Rate 250 g/ha) was 3 and the “Redroot pigweed plant response rating” value (pigweed; [5]) was 6. For the same molecule, the “Plant response rating, Redroot pigweed” value (pigweed; [6]) was 0, the “Sugarbeets plant response rating” value (sugar beet; [1]) was 0 and the “Plant response rating, Sugarbeets” value (sugar beet; [2]) was 0. For the same molecule, the “Sugarbeets plant response rating” value (sugar beet; [3]) was 2, the “Sugarbeets plant response rating” value (sugar beet; [4]) was 3 and the “Sugarbeets plant response rating (0 to 10 scale)” value (sugar beet; Preemergence, Rate 250 g/ha) was 3. For the same molecule, the “Sugarbeets plant response rating” value (sugar beet; [5]) was 4, the “Plant response rating, Sugarbeets” value (sugar beet; [6]) was 0 and the “Giant foxtail plant response rating” value (giant foxtail; [1]) was 0. For the same molecule, the “Giant foxtail plant response rating” value (giant foxtail; [7]) was 6, the “Plant response rating, Giant foxtail” value (giant foxtail; [2]) was 6 and the “Giant foxtail plant response rating” value (giant foxtail; [3]) was 9. For the same molecule, the “Giant foxtail plant response rating” value (giant foxtail; [4]) was 9, the “Giant foxtail plant response rating (0 to 10 scale)” value (giant foxtail; Preemergence, Rate 250 g/ha) was 10 and the “Giant foxtail plant response rating” value (giant foxtail; [5]) was 10. The “Plant response rating, Giant foxtail” value (giant foxtail; [6]) was 6, the “Soybean plant response rating” value (soybean; [1]) was 0 and the “Plant response rating, Soybean” value (soybean; [2]) was 2. The “Soybean plant response rating” value (soybean; [3]) was 0, the “Soybean plant response rating” value (soybean; [4]) was 0 and the “Soybean plant response rating (0 to 10 scale)” value (soybean; Preemergence, Rate 250 g/ha) was 0. The “Soybean plant response rating” value (soybean; [5]) was 0, the “Plant response rating, Soybean” value (soybean; [6]) was 0 and the “Cocklebur plant response rating” value (cocklebur; [1]) was 0. For the same molecule, the “Cocklebur plant response rating” value (cocklebur; [7]) was 0, the “Plant response rating, Cocklebur” value (cocklebur; [2]) was 0 and the “Cocklebur plant response rating” value (cocklebur; [3]) was 0. For the same molecule, the “Cocklebur plant response rating” value (cocklebur; [4]) was 0, the “Cocklebur plant response rating (0 to 10 scale)” value (cocklebur; Preemergence, Rate 250 g/ha) was 0 and the “Cocklebur plant response rating” value (cocklebur; [5]) was 0. The “Plant response rating, Cocklebur” value (cocklebur; [6]) was 0, the “Crabgrass plant response rating” value (crabgrass; [1]) was 0 and the “Crabgrass plant response rating” value (crabgrass; [7]) was 5. The “Plant response rating, Crabgrass” value (crabgrass; [2]) was 4, the “Crabgrass plant response rating” value (crabgrass; [3]) was 9 and the “Crabgrass plant response rating” value (crabgrass; [4]) was 9. The “Crabgrass plant response rating (0 to 10 scale)” value (crabgrass; Preemergence, Rate 250 g/ha) was 10, the “Crabgrass plant response rating” value (crabgrass; [5]) was 10 and the “Plant response rating, Crabgrass” value (crabgrass; [6]) was 4. The “Velvetleaf plant response rating” value (velvetleaf; [1]) was 0, the “Plant response rating, Velvetleaf” value (velvetleaf; [2]) was 2 and the “Velvetleaf plant response rating” value (velvetleaf; [3]) was 0. The “Velvetleaf plant response rating” value (velvetleaf; [4]) was 0, the “Velvetleaf plant response rating (0 to 10 scale)” value (velvetleaf; Preemergence, Rate 250 g/ha) was 0 and the “Velvetleaf plant response rating” value (velvetleaf; [5]) was 0. The “Plant response rating, Velvetleaf” value (velvetleaf; [6]) was 0, the “Wheat plant response rating” value (wheat; [1]) was 0 and the “Plant response rating, Wheat” value (wheat; [2]) was 0. For the same molecule, the “Wheat plant response rating” value (wheat; [3]) was 0, the “Wheat plant response rating” value (wheat; [4]) was 0 and the “Wheat plant response rating (0 to 10 scale)” value (wheat; Preemergence, Rate 250 g/ha) was 0. For the same molecule, the “Wheat plant response rating” value (wheat; [5]) was 3, the “Plant response rating, Wheat” value (wheat; [6]) was 0 and the “Blackgrass plant response rating” value (blackgrass; [1]) was 0. The “Blackgrass plant response rating” value (blackgrass; [7]) was 0, the “Plant response rating, Blackgrass” value (blackgrass; [2]) was 0 and the “Blackgrass plant response rating” value (blackgrass; [3]) was 6. The “Blackgrass plant response rating” value (blackgrass; [4]) was 6, the “Blackgrass plant response rating (0 to 10 scale)” value (blackgrass; Preemergence, Rate 250 g/ha) was 8 and the “Blackgrass plant response rating” value (blackgrass; [5]) was 8. The “Plant response rating, Blackgrass” value (blackgrass; [6]) was 0, the “Nutsedge plant response rating” value (purple nutsedge; [1]) was 0 and the “Nutsedge plant response rating” value (purple nutsedge; [7]) was 0. For the same molecule, the “Plant response rating, Nutsedge” value (purple nutsedge; [2]) was 0, the “Nutsedge plant response rating” value (purple nutsedge; [3]) was 0 and the “Nutsedge plant response rating” value (purple nutsedge; [4]) was 0. The “Nutsedge plant response rating (0 to 10 scale)” value (purple nutsedge; Preemergence, Rate 250 g/ha) was 0, the “Nutsedge plant response rating” value (purple nutsedge; [5]) was 0 and the “Plant response rating, Nutsedge” value (purple nutsedge; [6]) was 0. For the same molecule, the “Morningglory plant response rating” value (morningglory; [1]) was 5, the “Morningglory plant response rating” value (morningglory; [7]) was 8 and the “Plant response rating, Morningglory” value (morningglory; [2]) was 8. The “Morningglory plant response rating” value (morningglory; [3]) was 0, the “Morningglory plant response rating” value (morningglory; [4]) was 0 and the “Morningglory plant response rating (0 to 10 scale)” value (morningglory; Preemergence, Rate 250 g/ha) was 0. The “Morningglory plant response rating” value (morningglory; [5]) was 0, the “Bedstraw plant response rating” value (bedstraw; [1]) was 0 and the “Bedstraw plant response rating” value (bedstraw; [3]) was 0. For the same molecule, the “Bedstraw plant response rating” value (bedstraw; [4]) was 0, the “Bedstraw plant response rating (0 to 10 scale)” value (bedstraw; Preemergence, Rate 250 g/ha) was 0 and the “Bedstraw plant response rating” value (bedstraw; [5]) was 0. The “Plant response rating, Bedstraw” value (bedstraw; [6]) was 0, the “B. signalgrass plant response rating” value (surinam grass; [1]) was 0 and the “B. signalgrass plant response rating” value (surinam grass; [7]) was 2. The “Plant response rating, B. signalgrass” value (surinam grass; [2]) was 2, the “B. signalgrass plant response rating” value (surinam grass; [3]) was 4 and the “B. signalgrass plant response rating” value (surinam grass; [4]) was 6. For the same molecule, the “B. signalgrass plant response rating (0 to 10 scale, 0 is no effect, 10 is complete control)” value (surinam grass; Preemergence, Rate 250 g/ha) was 7, the “B. signalgrass plant response rating” value (surinam grass; [5]) was 7 and the “Plant response rating, B. signalgrass” value (surinam grass; [6]) was 2. The “Corn plant response rating” value (corn; [1]) was 0, the “Corn plant response rating” value (corn; [7]) was 0 and the “Plant response rating, Corn” value (corn; [2]) was 2. For the same molecule, the “Corn plant response rating” value (corn; [3]) was 0, the “Corn plant response rating” value (corn; [4]) was 0 and the “Corn plant response rating (0 to 10 scale)” value (corn; Preemergence, Rate 250 g/ha) was 0. The “Corn plant response rating” value (corn; [5]) was 0, the “Plant response rating, Corn” value (corn; [6]) was 0 and the “Rape plant response rating” value (rape; [1]) was 0. The “Rape plant response rating” value (rape; [7]) was 0, the “Plant response rating, Rape” value (rape; [2]) was 0 and the “Rape plant response rating” value (rape; [3]) was 0. For the same molecule, the “Rape plant response rating” value (rape; [4]) was 0, the “Rape plant response rating (0 to 10 scale)” value (rape; Preemergence, Rate 250 g/ha) was 0 and the “Rape plant response rating” value (rape; [5]) was 2. The “Plant response rating, Rape” value (rape; [6]) was 0, the “Wild oats plant response rating” value (wild oat; [1]) was 0 and the “Plant response rating, Wild oats” value (wild oat; [2]) was 0. For the same molecule, the “Wild oats plant response rating” value (wild oat; [3]) was 0, the “Wild oats plant response rating” value (wild oat; [4]) was 2 and the “Wild oats plant response rating (0 to 10 scale)” value (wild oat; Preemergence, Rate 250 g/ha) was 0. The “Wild oats plant response rating” value (wild oat; [5]) was 7 and the “Plant response rating, Wild oats” value (wild oat; [6]) was 0.
